# Assay results reported in paper PMC7763114, “Synthesis and pharmacological effects of novel benzenesulfonamides carrying benzamide moiety as carbonic anhydrase and acetylcholinesterase inhibitors” (Turkish Journal of Chemistry, 2020).
# Where “and” joins values, the source holds several entries; their conditions need not be identical. Identical values can stand only once.
# Tests used:
# Format in all cases: biochemical
# hCA II = hCA II (Homo sapiens, UniProt P00918); experiment: biochemical; details: for Ki: Lineweaver–Burk plots, three concentrations
# Procedure: (§1) CA isoenzymes (CA I and CA II) were purified using a Sepharose-4B-L tyrosine-sulphanilamide affinity chromatography. Activities of CA isoenzymes were determined according to method by Verpoorte et al.. […] The experimental procedure was given in detail in our previous papers. SSpectrophotometry-based Ellman’s method was used to test the compounds’ AChE inhibitory effects. Acetylthiocholine iodide (AChI) was used as a substrate of the reaction. 5,5-dithiobis(2-nitro-benzoic acid) (DTNB) was used for the determination of the AChE activities. An activity (%)-[Compound] graph was drawn to calculate the inhibition effects of the compounds on CAs and AChE. The IC50 values were obtained from activity (%) versus compounds plots. Three different concentrations were used to calculate Ki values. The Lineweaver–Burk plots were drawn, and calculations were realized as described.
# hCA I = hCA I (Homo sapiens, UniProt P00915); experiment: biochemical; details: for Ki: Lineweaver–Burk plots, three concentrations
# Sequence of hCA I (P00915 whole entry): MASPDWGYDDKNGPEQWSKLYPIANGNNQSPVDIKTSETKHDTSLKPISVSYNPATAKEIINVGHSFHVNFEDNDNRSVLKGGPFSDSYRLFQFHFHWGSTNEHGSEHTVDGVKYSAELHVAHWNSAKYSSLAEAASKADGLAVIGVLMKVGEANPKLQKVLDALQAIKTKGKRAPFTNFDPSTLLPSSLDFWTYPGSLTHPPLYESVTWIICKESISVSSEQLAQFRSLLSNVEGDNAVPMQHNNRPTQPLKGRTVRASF
# Procedure: as §1
# AChE = AChE (Electrophorus electricus, UniProt O42275); experiment: AChE inhibition (Ellman's method); details: in terms of Ki value
# Sequence of AChE (O42275 24-633): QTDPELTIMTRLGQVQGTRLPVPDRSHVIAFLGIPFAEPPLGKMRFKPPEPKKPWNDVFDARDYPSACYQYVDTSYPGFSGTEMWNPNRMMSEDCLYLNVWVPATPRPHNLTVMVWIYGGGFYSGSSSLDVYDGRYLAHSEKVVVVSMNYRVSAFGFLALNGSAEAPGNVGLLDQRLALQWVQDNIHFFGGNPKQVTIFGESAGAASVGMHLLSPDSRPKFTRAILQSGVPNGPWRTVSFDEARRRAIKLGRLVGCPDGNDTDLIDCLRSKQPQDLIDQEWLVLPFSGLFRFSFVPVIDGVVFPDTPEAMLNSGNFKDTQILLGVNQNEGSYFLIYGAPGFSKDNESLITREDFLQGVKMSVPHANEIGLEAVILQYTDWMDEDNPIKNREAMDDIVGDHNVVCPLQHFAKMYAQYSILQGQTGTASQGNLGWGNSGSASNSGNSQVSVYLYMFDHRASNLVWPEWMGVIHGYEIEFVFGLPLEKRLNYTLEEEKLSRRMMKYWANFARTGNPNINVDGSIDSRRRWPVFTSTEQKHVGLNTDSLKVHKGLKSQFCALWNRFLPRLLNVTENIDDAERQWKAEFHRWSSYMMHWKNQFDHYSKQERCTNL
# Procedure: as §1
structure (smiles),measurement,setting,value
COc1ccc(/C=C(\NC(=O)c2ccccc2)C(=O)Nc2ccc(S(=O)(=O)Nc3nccc(C)n3)cc2)cc1 [3f],IC50,hCA II,24.8 nM
same,Ki,hCA II,21.4 ± 3.47 nM
same,IC50,hCA I,28.9 nM
same,Ki,hCA I,11.3 ± 1.7 nM
same,times more potent than AZA toward hCA I,hCA I; based on Ki values,2.7 ×
same,times more potent than 3e on AChE,AChE,3.8 ×
same,times more potent than 3g on AChE,AChE,1.5 ×
COc1ccc(/C=C(\NC(=O)c2ccccc2)C(=O)Nc2ccc(S(N)(=O)=O)cc2)cc1 [3c],IC50,hCA II,30.1 nM
same,Ki,hCA II,10.7 ± 0.98 nM
same,times more potent than AZA toward hCA II,hCA II; based on Ki values,2.1 × and 2 ×
same,times more potent than compound 2 on hCA II,hCA II; based on Ki values,5.8 ×
same,IC50,hCA I,20.4 nM
same,Ki,hCA I,6.33 ± 0.51 nM
same,times more potent than AZA toward hCA I,hCA I; based on Ki values,4.8 ×
COc1ccc(/C=C(\NC(=O)c2ccccc2)C(=O)Nc2ccc(S(=O)(=O)Nc3nccs3)cc2)cc1 [3d],IC50,hCA II,21 nM
same,Ki,hCA II,16.9 ± 3.76 nM
same,times more potent than AZA toward hCA II,hCA II; based on Ki values,1.3 ×
same,IC50,hCA I,22.4 nM
same,Ki,hCA I,9.16 ± 0.46 nM
same,times more potent than AZA toward hCA I,hCA I; based on Ki values,3.3 ×
"COc1ccc(C=C2N=C(c3ccccc3)OC2=O)cc1 [compound 2, 4-(4-methoxybenzylidene)-2-phenyloxazol-5(4H)-one]",IC50,hCA II,46.2 nM
same,Ki,hCA II,62.5 ± 11.5 nM
same,IC50,hCA I,40.8 nM
same,Ki,hCA I,50.3 ± 1.59 nM
COc1ccc(/C=C(\NC(=O)c2ccccc2)C(=O)Nc2ccc(S(=O)(=O)Nc3ncccn3)cc2)cc1 [3e],IC50,hCA II,25.7 nM
same,Ki,hCA II,37.2 ± 7.55 nM
same,IC50,hCA I,25.7 nM
same,Ki,hCA I,8.02 ± 0.88 nM
same,times more potent than AZA toward hCA I,hCA I; based on Ki values,3.8 ×
COc1ccc(/C=C(\NC(=O)c2ccccc2)C(=O)Nc2ccc(S(=O)(=O)NC(C)=O)cc2)cc1 [3a],IC50,hCA II,20.4 nM
same,Ki,hCA II,18.7 ± 1.59 nM
same,times more potent than AZA toward hCA II,hCA II; based on Ki values,1.2 ×
same,IC50,hCA I,27.7 nM
same,Ki,hCA I,17.6 ± 4.72 nM
same,times more potent than AZA toward hCA I,hCA I; based on Ki values,1.7 ×
COc1ccc(/C=C(\NC(=O)c2ccccc2)C(=O)Nc2ccc(S(=O)(=O)Nc3nc(C)cc(C)n3)cc2)cc1 [3g],IC50,hCA II,26.7 nM
same,Ki,hCA II,14.9 ± 3.1 nM
same,times more potent than AZA toward hCA II,hCA II; based on Ki values,1.5 ×
same,IC50,hCA I,21 nM
same,Ki,hCA I,4.07 ± 0.38 nM
same,times more potent than 3e on hCA I,hCA I; based on Ki values,2 ×
same,times more potent than AZA toward hCA I,hCA I; based on Ki values,7.5 ×
same,times more potent than compound 2 on hCA I,hCA I; based on Ki values,12.4 ×
COc1ccc(/C=C(\NC(=O)c2ccccc2)C(=O)Nc2ccc(S(=O)(=O)NC(=N)N)cc2)cc1 [3b],IC50,hCA II,24.8 nM
same,Ki,hCA II,12.6 ± 2.54 nM
same,times more potent than AZA toward hCA II,hCA II; based on Ki values,1.8 ×
same,IC50,hCA I,19.8 nM
same,Ki,hCA I,29.7 ± 3.18 nM
